19 molecules from ChEMBL document CHEMBL4184280, “Novel nicotinamide analog as inhibitor of nicotinamide N-methyltransferase” (Bioorg Med Chem Lett, 2018) can be followed below.

Series [1] addresses T1, Nicotinamide N-methyltransferase (Homo sapiens, UniProt P40261).
T1 sequence (P40261 whole entry): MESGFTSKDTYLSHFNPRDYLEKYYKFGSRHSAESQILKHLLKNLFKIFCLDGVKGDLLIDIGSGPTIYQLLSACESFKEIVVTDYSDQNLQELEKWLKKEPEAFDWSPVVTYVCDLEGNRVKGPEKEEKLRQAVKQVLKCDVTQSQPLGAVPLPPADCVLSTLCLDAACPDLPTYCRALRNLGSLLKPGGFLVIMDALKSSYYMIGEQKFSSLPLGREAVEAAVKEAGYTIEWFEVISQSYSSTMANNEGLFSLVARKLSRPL

Series [2] addresses T2, Nicotinamide N-methyltransferase (Mus musculus, UniProt O55239).
T2 sequence (O55239 whole entry): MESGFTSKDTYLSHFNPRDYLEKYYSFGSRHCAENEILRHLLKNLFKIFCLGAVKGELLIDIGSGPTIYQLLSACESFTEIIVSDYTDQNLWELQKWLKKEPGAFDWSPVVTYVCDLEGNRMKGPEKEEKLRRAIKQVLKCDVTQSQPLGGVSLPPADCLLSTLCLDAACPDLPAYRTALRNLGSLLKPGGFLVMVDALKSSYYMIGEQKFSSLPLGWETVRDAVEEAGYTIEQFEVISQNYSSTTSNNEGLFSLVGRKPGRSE
The experiment in a line: Inhibition of mouse NNMT at 30 uM preincubated for 30 mins followed by nicotinamide substrate and SAM addition measured after 60 mins by fluorescence assay.

Series [3] concerns the target T2, Nicotinamide N-methyltransferase. The experiment in a line: Inhibition of NNMT in mouse 3T3L1 cells assessed as reduction in MNA production after 24 hrs by LC-MS/MS analysis. The series is classed as cell-based.
Series [4] can be described thus: Metabolic stability in human liver microsomes assessed as parent compound remaining after 30 mins. The conditions noted are these: read-out: Stability. Format: ADME, microsome. Background: Microsomes from liver hold many membrane-bound enzymes, among them those of drug oxidation.
Series [5] can be described thus: Metabolic stability in rat liver microsomes assessed as parent compound remaining after 30 mins. The conditions noted are these: read-out: Stability. Format: ADME, microsome.
Series [6] in a line: Metabolic stability in mouse liver microsomes assessed as parent compound remaining after 30 mins. The conditions noted are these: read-out: Stability. The series is classed as ADME, microsome.
The nature of series [7]: Solubility of the compound. The series is classed as physicochemical.
For series [8], the target named is Cytochrome P450 3A4 (Homo sapiens, UniProt P08684). The experiment in a line: Inhibition of CYP3A4 (unknown origin). The series is classed as ADME.
The target of series [9] is Cytochrome P450 2D6 (Homo sapiens, UniProt P10635). The experiment in a line: Inhibition of CYP2D6 (unknown origin). The series is classed as ADME.
Series [10] deals with Cytochrome P450 2C9 (Homo sapiens, UniProt P11712). The experiment in a line: Inhibition of CYP2C9 (unknown origin). Format: ADME.
In series [11] the target is Cytochrome P450 2C19 (Homo sapiens, UniProt P33261). The experiment in a line: Inhibition of CYP2C19 (unknown origin). Format: ADME.
The nature of series [12]: Cmax in C57Bl6/N mouse at 10 mg/kg, po. The series is classed as ADME, organism-based. The arrangement: dose 10 mg/kg, route oral. The conditions noted are these: in vivo.
The nature of series [13]: Cmax in C57Bl6/N mouse at 1 mg/kg, iv. Format: ADME, organism-based. The arrangement: dose 1 mg/kg, route intravenous. The conditions noted are these: in vivo.
Series [14] in a line: AUC in C57Bl6/N mouse at 10 mg/kg, po. The conditions noted are these: in vivo. The series is classed as ADME, organism-based.
Series [15] is described as follows: AUC in C57Bl6/N mouse at 1 mg/kg, iv. The series is classed as ADME, organism-based. The conditions noted are these: in vivo.
A short description of series [16]: Half life in C57Bl6/N mouse at 10 mg/kg, po. The series is classed as ADME, organism-based. The conditions noted are these: in vivo.
A short description of series [17]: Half life in C57Bl6/N mouse at 1 mg/kg, iv. The series is classed as ADME, organism-based. The conditions noted are these: in vivo.
The nature of series [18]: Clearance in C57Bl6/N mouse at 10 mg/kg, po or 1 mg/kg, iv. Format: ADME, organism-based. The conditions noted are these: in vivo.
Series [19] in a line: Volume of distribution in C57Bl6/N mouse at 10 mg/kg, po or 1 mg/kg, iv. The series is classed as ADME, organism-based. The conditions noted are these: in vivo.
A short description of series [20]: Oral bioavailability in C57Bl6/N mouse at 10 mg/kg. Format: ADME, organism-based. The conditions noted are these: in vivo.
The subject of series [21] is Mus musculus. The experiment in a line: In vivo inhibition of NNMT in C57Bl6/N mouse assessed as reduction in plasma MNA level at 50 mg/kg, po measured after 2 hrs by LC-MS/MS analysis. Format: functional.

In brackets after ≈: the same amount, converted by molar mass.

Sequence of Cytochrome P450 2C19 (P33261 whole entry): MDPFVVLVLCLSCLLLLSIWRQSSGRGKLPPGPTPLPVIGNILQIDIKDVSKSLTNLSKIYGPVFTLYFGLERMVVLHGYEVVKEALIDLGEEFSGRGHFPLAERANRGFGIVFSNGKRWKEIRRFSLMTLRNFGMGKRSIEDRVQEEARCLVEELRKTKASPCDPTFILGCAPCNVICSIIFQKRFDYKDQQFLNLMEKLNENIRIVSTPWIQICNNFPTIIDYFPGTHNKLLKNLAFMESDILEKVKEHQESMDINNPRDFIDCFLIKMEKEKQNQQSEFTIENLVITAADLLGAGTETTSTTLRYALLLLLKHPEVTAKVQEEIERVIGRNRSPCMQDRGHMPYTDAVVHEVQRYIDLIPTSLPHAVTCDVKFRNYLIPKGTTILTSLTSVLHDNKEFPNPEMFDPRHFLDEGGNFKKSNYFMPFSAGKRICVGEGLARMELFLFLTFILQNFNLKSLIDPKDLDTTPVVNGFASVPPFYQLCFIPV
Sequence of Cytochrome P450 2D6 (P10635 whole entry): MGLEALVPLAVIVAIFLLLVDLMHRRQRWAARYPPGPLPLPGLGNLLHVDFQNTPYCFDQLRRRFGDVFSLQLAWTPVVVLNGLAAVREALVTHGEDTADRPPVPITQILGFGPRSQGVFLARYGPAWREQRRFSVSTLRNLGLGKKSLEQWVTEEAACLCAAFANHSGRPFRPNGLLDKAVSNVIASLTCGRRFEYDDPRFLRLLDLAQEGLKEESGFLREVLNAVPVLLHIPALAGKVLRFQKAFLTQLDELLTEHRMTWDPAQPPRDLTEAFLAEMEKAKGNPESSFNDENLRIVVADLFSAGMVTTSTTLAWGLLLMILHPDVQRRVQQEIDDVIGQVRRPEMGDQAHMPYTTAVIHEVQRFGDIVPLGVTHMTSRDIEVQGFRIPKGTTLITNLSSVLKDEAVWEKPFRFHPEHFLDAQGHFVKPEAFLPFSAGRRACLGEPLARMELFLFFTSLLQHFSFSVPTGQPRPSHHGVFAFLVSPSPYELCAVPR
Sequence of Cytochrome P450 3A4 (P08684 whole entry): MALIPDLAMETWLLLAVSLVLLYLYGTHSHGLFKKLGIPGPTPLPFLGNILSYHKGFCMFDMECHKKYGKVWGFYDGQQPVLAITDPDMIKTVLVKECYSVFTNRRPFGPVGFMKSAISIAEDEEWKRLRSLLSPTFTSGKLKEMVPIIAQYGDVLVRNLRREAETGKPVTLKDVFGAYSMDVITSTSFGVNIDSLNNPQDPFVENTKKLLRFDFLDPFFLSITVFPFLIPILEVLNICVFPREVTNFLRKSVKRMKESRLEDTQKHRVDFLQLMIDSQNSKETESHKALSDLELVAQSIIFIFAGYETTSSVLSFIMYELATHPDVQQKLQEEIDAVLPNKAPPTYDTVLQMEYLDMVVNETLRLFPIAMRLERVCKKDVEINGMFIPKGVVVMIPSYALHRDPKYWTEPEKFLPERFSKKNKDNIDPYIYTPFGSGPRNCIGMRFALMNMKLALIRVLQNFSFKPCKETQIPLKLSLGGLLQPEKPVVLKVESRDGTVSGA
Sequence of Cytochrome P450 2C9 (P11712 whole entry): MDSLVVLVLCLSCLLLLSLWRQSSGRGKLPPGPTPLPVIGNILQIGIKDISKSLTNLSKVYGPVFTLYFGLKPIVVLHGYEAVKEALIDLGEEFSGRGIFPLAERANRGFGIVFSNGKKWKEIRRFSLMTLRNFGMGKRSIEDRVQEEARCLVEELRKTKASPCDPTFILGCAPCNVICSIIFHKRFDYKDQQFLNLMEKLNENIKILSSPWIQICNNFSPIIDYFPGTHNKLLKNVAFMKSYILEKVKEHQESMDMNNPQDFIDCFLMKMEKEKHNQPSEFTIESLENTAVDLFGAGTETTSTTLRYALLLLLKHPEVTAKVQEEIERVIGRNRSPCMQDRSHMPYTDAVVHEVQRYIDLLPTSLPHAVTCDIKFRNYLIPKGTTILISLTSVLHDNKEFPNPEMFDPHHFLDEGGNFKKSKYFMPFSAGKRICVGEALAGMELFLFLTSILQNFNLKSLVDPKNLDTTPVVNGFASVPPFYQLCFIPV

As usually defined, the IC50 is the concentration that gives 50% inhibition. For the molecule `NC(=O)c1ccc(C(F)(F)F)nc1`, the IC50 in series [1] is greater than 30 µM.
In series [1], `CCOc1cc(C)ncc1C(N)=O` had a 50% inhibitory concentration (IC50) greater than 30 µM.
The solubility is the dissolved amount per volume that the medium holds. The low end stands for little dissolved substance, the high end for much dissolved substance. What is called Cmax is the highest concentration seen after dosing. Broadly, the AUC is concentration integrated over time. A higher AUC goes with more exposure. As a reminder, the half-life is how long it takes for the measured level to halve. In general, bioavailability refers to the share of a dose that reaches the circulation, judged against a reference dose that is usually intravenous. Low readings indicate poor availability, high ones good availability. A word on the inhibition in vivo: it is the percentage by which the read-out fell short of the control. For `CNc1ccc(C(N)=O)cn1`, the IC50 was 4.5 µM in [2]; 2.1 µM in series [3]; greater than 20 µM in series [8]; greater than 20 µM in series [9]; greater than 20 µM in series [10]; greater than 20 µM in series [11]. In addition, the remaining at 0.5 h was found to be 85% in series [4], 97% in series [5] and 69% in series [6]. Moreover, the solubility in [7] turned out to be 200 µM (≈ 30.2 µg/mL). Moreover, the Cmax in [12] worked out at 1.43 µg/mL; in series [13] it was 0.587 µg/mL. Further, the AUC stood at 1.09 µg·h/mL in series [14] and 0.511 µg·h/mL in series [15]. Further, the half-life in [16] was 1.2 h; in series [17], 0.8 h. In series [18], the clearance was 1.67 L/h/kg. Moreover, the Vd in series [19] was determined as 1.85 L/kg. The bioavailability in series [20] was 19%. Further, in [21], the inhibition in vivo at 50 mg/kg was 80%.
`Cc1ccc(C(N)=O)cn1` gave a concentration for half-maximal inhibition (IC50) in series [1] greater than 10 µM.
The molecule `COc1cnc(C(N)=O)cn1` had a half-maximal inhibitory concentration (IC50) in series [1] greater than 30 µM.
In turn, `CCNC(=O)c1ccc(OC)nc1` yielded an IC50 in [1] greater than 30 µM.
Take `NC(=O)c1ccc(OC(F)F)nc1`: in series [1], the half-inhibitory concentration (IC50) was greater than 30 µM.
On the same count and under the same terms, the same measure for `Cn1cc(C(N)=O)ccc1=O`: greater than 30 µM; for `[2H]C([2H])([2H])Oc1ccc(C(N)=O)cn1`: 0.922 to 1.61 µM; for `COc1ccc(C(=N)N)cn1`: greater than 30 µM.
Turning to `CN(C)c1ccc(C(N)=O)cn1`, the IC50 in [1] was greater than 30 µM.
For the molecule `COc1ccc(C(N)=O)cc1`, the IC50 in series [1] was greater than 30 µM.
In series [1], `COc1ccc(-c2nnn[nH]2)cn1` came in with a half-maximal inhibitory concentration (IC50) greater than 30 µM.
On to `CSc1ccc(C(N)=O)cn1`, for which the 50% inhibitory concentration (IC50) in series [1] is greater than 30 µM.
Same read-out and setting: to `COc1ccc(C(N)=O)cc1F` belongs greater than 30 µM; to `CCOc1nc(C)ccc1C(N)=O`, greater than 30 µM; to `COc1ccc(C(N)=O)cn1`, 2.36 to 2.52 µM.
In [1], `CCc1ccc(C(N)=O)cn1` registered an IC50 greater than 30 µM.
For the molecule `COc1ccc(NC(C)=O)cn1`, in series [1], the concentration for half-maximal inhibition (IC50) is greater than 30 µM.
